A value given as a limit tells only on which side of the number the result lay.

Our source for the Ki values is patent US20130225583A1, “SUBSTITUTED AMINO-TRIAZOLYL PDE10 INHIBITORS” (priority 2010, published 2013).

The target of this experiment is T1, human PDE10A2 (Homo sapiens, UniProt Q9Y233).
T1 construct: made in house; host or cells: AD293 cells, transiently transfected; The cytosolic supernatant of the lysate served as the enzyme
T1 sequence (Q9Y233 267-1055): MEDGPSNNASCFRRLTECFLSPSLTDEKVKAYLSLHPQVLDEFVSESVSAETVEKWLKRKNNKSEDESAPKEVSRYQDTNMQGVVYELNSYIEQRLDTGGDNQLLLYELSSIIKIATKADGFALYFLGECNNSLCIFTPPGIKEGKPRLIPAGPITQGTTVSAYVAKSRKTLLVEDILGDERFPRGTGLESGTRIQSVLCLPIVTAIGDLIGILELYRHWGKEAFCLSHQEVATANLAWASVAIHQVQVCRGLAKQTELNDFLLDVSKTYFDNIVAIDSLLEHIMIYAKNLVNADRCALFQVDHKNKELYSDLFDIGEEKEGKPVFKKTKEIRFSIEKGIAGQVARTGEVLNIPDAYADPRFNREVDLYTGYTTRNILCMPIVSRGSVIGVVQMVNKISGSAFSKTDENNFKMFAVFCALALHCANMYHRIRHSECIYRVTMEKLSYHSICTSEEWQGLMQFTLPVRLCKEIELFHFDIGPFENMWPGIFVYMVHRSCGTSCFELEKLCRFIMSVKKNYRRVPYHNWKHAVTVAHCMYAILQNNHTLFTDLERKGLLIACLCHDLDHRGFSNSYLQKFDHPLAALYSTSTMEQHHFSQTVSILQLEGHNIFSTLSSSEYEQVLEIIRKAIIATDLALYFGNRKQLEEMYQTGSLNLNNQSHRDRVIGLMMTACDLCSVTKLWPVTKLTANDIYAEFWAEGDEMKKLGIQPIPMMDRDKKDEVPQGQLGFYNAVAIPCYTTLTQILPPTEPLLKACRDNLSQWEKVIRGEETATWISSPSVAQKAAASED
In words: PDE10 fluorescence polarization (IMAP FP) inhibition assay. It counts as biochemical. Particulars: apparent inhibition constant; FAM-labeled cAMP 50 nM; lysate of AD293 cells transfected with human PDE10A2; room temperature; read-out: PDE10a Ki. As for the experimental part:
The activity of the compounds in accordance with the present invention as PDE10 inhibitors may be readily determined without undue experimentation using a fluorescence polarization (FP) methodology that is well known in the art (Huang, W., et al., J. Biomol Screen, 2002, 7: 215).
In a typical experiment the PDE 10 inhibitory activity of the compounds of the present invention was determined in accordance with the following experimental method. PDE 10A2 was amplified from human fetal brain cDNA (Clontech, Mountain View, Calif.) using a forward primer corresponding to nucleotides 56-77 of human PDE10A2 (Accession No. AF127480, Genbank Identifier 4894716), containing a Kozak consensus sequence, and a reverse primer corresponding to nucleotides 2406-2413 of human PDE10A2 (Accession No. AF127480, Genbank Identifier 4894716). Amplification with Easy-A polymerase (Stratagene, La Jolla, Calif.) was 95° C. for 2 minutes followed by thirty three cycles of 95° C. for 40 seconds, 55° C. for 30 seconds, and 72° C. for 2 minutes 48 seconds. Final extension was 72° C. for 7 minutes. The PCR product was TA cloned into pcDNA3.2-TOPO (Invitrogen, Carlsbad, Calif.) according to standard protocol. AD293 cells with 70-80% confluency were transiently transfected with human PDE10A2/pcDNA3.2-TOPO using Lipofectamine 2000 according to manufacturer specifications (Invitrogen, Carlsbad, Calif.). Cells were harvested 48 hours post-transfection and lysed by sonication (setting 3, 10×5 sec pulses) in a buffer containing 20 mM HEPES, 1 mM EDTA and protease inhibitor cocktail (Roche). Lysate was collected by centrifugation at 75,000×g for 20 minutes. Supernatant containing the cytoplasmic fraction was used for evaluation of PDE10A2 activity. The fluorescence polarization assay for cyclic nucleotide phosphodiesterases was performed using an IMAP® FP kit supplied by Molecular Devices, Sunnyvale, Calif. (product # R8139). IMAP® technology has been applied previously to phosphodiesterase assays (Huang, W., et al., J. Biomol Screen, 2002, 7: 215). Assays were performed at room temperature in 384-well microtiter plates with an incubation volume of 20.2 μL. Solutions of test compounds were prepared in DMSO and serially diluted with DMSO to yield 8 μL of each of 10 solutions differing by 3-fold in concentration, at 32 serial dilutions per plate. 100% inhibition is determined using a known PDE 10 inhibitor, which can be any compound that is present at 5,000 times its Ki value in the assay described as follows, such as papaverine (see Siuciak, et al. Neuropharmacology (2006) 51:386-396; Becker, et al. Behav Brain Res (2008) 186(2):155-60; Threlfell, et al., J Pharmacol Exp Ther (2009) 328(3):785-795), 2-{4-[pyridin-4-yl-1-(2,2,2-trifluoroethyl)-1H-pyrazol-3-yl]phenoxymethyl}quinoline succinic acid or 2-[4-(1-methyl-4-pyridin-4-yl-1H-pyrazol-3-yl)-phenoxymethyl]quinoline succinic acid (see Schmidt, et al. J Pharmacol Exp Ther (2008) 325:681-690; Threlfell, et al., J Pharmacol Exp Ther (2009) 328(3): 785-795). 0% of inhibition is determined by using DMSO (1% final concentrations). A Labcyte Echo 555 (Labcyte, Sunnyvale, Calif.) is used to dispense 200 nL from each well of the titration plate to the 384 well assay plate. A solution of enzyme ( 1/7000 dilution from aliquots; sufficient to produce 20% substrate conversion) and a separate solution of FAM-labeled cAMP PDE from Molecular Devices (product # R7506), at a final concentration of 50 nM are made in the assay buffer (10 mM Tris HCl, pH 7.2, 10 mM MgCl2, 0.05% NaN3 0.01% Tween-20, and 1 mM DTT). The enzyme is added to the assay plates by the addition of 10 μL of enzyme solution to each well, shaken to mix and incubated at room temperature for 60 minutes. The substrate is then added to the assay plates by the addition of 10 μL of substrate solution to each well, shaken to mix, and incubated at room temperature for 60 minutes. […]
As for `COc1ccc(CNc2nc(Cc3ccc(OC)c(OC)c3)n(-c3ccccc3)n2)cc1` [1-10, 5-(3,4-dimethoxybenzyl)-N-(4-methoxybenzyl)-1-phenyl-1H-1,2,4-triazol-3-amine], the Ki was found to be 0.146 µM.
The same measure for `COc1ccc(CNc2nc(Cc3ccc(OC)c(OC)c3)n(C)n2)cc1` [1-11, 5-(3,4-dimethoxybenzyl)-N-(4-methoxybenzyl)-1-methyl-1H-1,2,4-triazol-3-amine]: 0.0248 µM; for `COc1ccc(CNc2nc(Cc3ccc(OC)c(OC)c3)n(-c3ccccn3)n2)cc1` [1-13, 5-(3,4-dimethoxybenzyl)-N-(4-methoxybenzyl)-1-(pyridin-2-yl)-1H-1,2,4-triazol-3-amine]: 0.78 µM.
The same measure for `COc1ccc(Cc2nc(N)nn2-c2ccccn2)cc1OC` [1-14, 5-(3,4-dimethoxybenzyl)-1-(pyridin-2-yl)-1H-1,2,4-triazol-3-amine]: 0.25 µM; for `COc1ccc(Cc2nc(N)nn2-c2ccc(Cl)c(Cl)c2)cc1OC` [1-16, 1-(3,4-dichlorophenyl)-5-(3,4-dimethoxybenzyl)-1H-1,2,4-triazol-3-amine]: 0.153 µM; for `COc1ccc(Cc2nc(N)nn2-c2cc(C)cc(C)c2)cc1OC` [1-17, 5-(3,4-dimethoxybenzyl)-1-(3,5-dimethylphenyl)-1H-1,2,4-triazol-3-amine]: 0.101 µM.
Turning to `COc1ccccc1COc1cc(-n2nc(N)nc2Cc2ccc(OC)c(OC)c2)ncn1` [1-35, 5-(3,4-dimethoxybenzyl)-1-(6-(2-methoxybenzyloxy)pyrimidin-4-yl)-1H-1,2,4-triazol-3-amine], the Ki was 0.88 µM.
The same measure for `COc1ccc(COc2cc(-n3nc(N)nc3Cc3ccc(OC)c(OC)c3)ncn2)cc1` [1-36, 5-(3,4-dimethoxybenzyl)-1-(6-(4-methoxybenzyloxy)pyrimidin-4-yl)-1H-1,2,4-triazol-3-amine]: 0.55 µM; for `COc1ccc(Cc2nc(N)nn2-c2cc(OCc3ccc4ccccc4c3)ncn2)cc1OC` [1-38, 5-(3,4-dimethoxybenzyl)-1-(6-(naphthalen-2-ylmethoxy)pyrimidin-4-yl)-1H-1,2,4-triazol-3-amine]: 0.054 µM.
With `COc1ccc(Cc2nc(N)nn2-c2cc(OC3Cc4ccccc4C3)ncn2)cc1OC` [1-39, 1-(6-(2,3-dihydro-1H-inden-2-yloxy)pyrimidin-4-yl)-5-(3,4-dimethoxybenzyl)-1H-1,2,4-triazol-3-amine] the figure was 0.97 µM; with `COc1ccc(Cc2nc(N)nn2-c2cc(OCc3nc4ccccc4[nH]3)ncn2)cc1OC` [1-40, 1-(6-((1H-benzo[d]imidazol-2-yl)methoxy)pyrimidin-4-yl)-5-(3,4-dimethoxybenzyl)-1H-1,2,4-triazol-3-amine], 0.019 µM; with `COc1ccc(Cc2nc(N)nn2-c2cc(OCc3cn4ccccc4n3)ncn2)cc1OC` [1-41, 5-(3,4-dimethoxybenzyl)-1-(6-(imidazo[1,2-a]pyridin-2-ylmethoxy)pyrimidin-4-yl)-1H-1,2,4-triazol-3-amine], 0.18 µM.
The same measure for `COc1ccc(Cc2nc(N)nn2-c2cc(OCc3ccc(-c4ccncc4)cc3)ncn2)cc1OC` [1-42, 5-(3,4-dimethoxybenzyl)-1-(6-(4-(pyridin-4-yl)benzyloxy)pyrimidin-4-yl)-1H-1,2,4-triazol-3-amine]: 0.27 µM; for `COc1ccc(Cc2nc(N)nn2-c2cc(OCc3ccccc3-c3cccs3)ncn2)cc1OC` [1-43, 5-(3,4-dimethoxybenzyl)-1-(6-(2-(thiophen-2-yl)benzyloxy)pyrimidin-4-yl)-1H-1,2,4-triazol-3-amine]: 0.019 µM.
As for `COc1ccc(Cc2nc(N)nn2-c2cc(OCCN3CCNC3=O)ncn2)cc1OC` [1-44, 1-(2-(6-(3-amino-5-(3,4-dimethoxybenzyl)-1H-1,2,4-triazol-1-yl)pyrimidin-4-yloxy)ethyl)imidazolidin-2-one], the Ki was 0.018 µM.
For `COc1ccc(Cc2nc(N)nn2-c2cc(OCc3cncc(N4CCNCC4)n3)ncn2)cc1OC` [1-45, 5-(3,4-dimethoxybenzyl)-1-(6-((6-(piperazin-1-yl)pyrazin-2-yl)methoxy)pyrimidin-4-yl)-1H-1,2,4-triazol-3-amine], the Ki was 0.57 µM.
With `COc1ccc(Cc2nc(N)nn2-c2cc(OCC3(c4ccccc4)CC3(F)F)ncn2)cc1OC` (centres unmarked) [1-46, 1-(6-((2,2-difluoro-1-phenylcyclopropyl)methoxy)pyrimidin-4-yl)-5-(3,4-dimethoxybenzyl)-1H-1,2,4-triazol-3-amine] the figure was 0.0056 µM.
In the case of `COc1ccc(Cc2nc(N)nn2-c2cc(=O)n(CCc3ccccn3)cn2)cc1OC` [1-47, 6-(3-amino-5-(3,4-dimethoxybenzyl)-1H-1,2,4-triazol-1-yl)-3-(2-(pyridin-2-yl)ethyl)pyrimidin-4(3H)-one], the Ki is 0.07 µM.
The same measure for `COc1ccc(Cc2nc(N)nn2-c2cc(=O)n(CCN3CCOCC3)cn2)cc1OC` [1-48, 6-(3-amino-5-(3,4-dimethoxybenzyl)-1H-1,2,4-triazol-1-yl)-3-(2-morpholinoethyl)pyrimidin-4(3H)-one]: less than 0.0038 µM.
For `COc1ccc(Cc2nc(N)nn2-c2cc(=O)n(Cc3ccccn3)cn2)cc1OC` [1-49, 6-(3-amino-5-(3,4-dimethoxybenzyl)-1H-1,2,4-triazol-1-yl)-3-(pyridin-2-ylmethyl)pyrimidin-4(3H)-one], the Ki was less than 0.0038 µM.
In the case of `COc1ccc(Cc2nc(N)nn2-c2cc(=O)n(Cc3ccccc3C(F)(F)F)cn2)cc1OC` [1-50, 6-(3-amino-5-(3,4-dimethoxybenzyl)-1H-1,2,4-triazol-1-yl)-3-(2-(trifluoromethyl)benzyl)pyrimidin-4(3H)-one], the Ki is 0.19 µM.
Regarding `COc1ccc(Cc2nc(N)nn2-c2cc(=O)n(CCc3cccs3)cn2)cc1OC` [1-51, 6-(3-amino-5-(3,4-dimethoxybenzyl)-1H-1,2,4-triazol-1-yl)-3-(2-(thiophen-2-yl)ethyl)pyrimidin-4(3H)-one], the Ki is 0.023 µM.
With `COc1ccc(Cc2nc(N)nn2-c2cc(=O)n(Cc3nc4ccccc4[nH]3)cn2)cc1OC` [1-54, 3-((1H-benzo[d]imidazol-2-yl)methyl)-6-(3-amino-5-(3,4-dimethoxybenzyl)-1H-1,2,4-triazol-1-yl)pyrimidin-4(3H)-one] the figure was 0.39 µM; with `COc1ccc(Cc2nc(N)nn2-c2cc(=O)n(Cc3cn4ccccc4n3)cn2)cc1OC` [1-55, 6-(3-amino-5-(3,4-dimethoxybenzyl)-1H-1,2,4-triazol-1-yl)-3-(imidazo[1,2-a]pyridin-2-ylmethyl)pyrimidin-4(3H)-one], 0.65 µM.
`COc1ccc(Cc2nc(N)nn2-c2cc(=O)n(Cc3ccc(-c4ccncc4)cc3)cn2)cc1OC` [1-56, 6-(3-amino-5-(3,4-dimethoxybenzyl)-1H-1,2,4-triazol-1-yl)-3-(4-(pyridin-4-yl)benzyl)pyrimidin-4(3H)-one]: the Ki stood at 0.54 µM.
The same measure for `COc1ccc(Cc2nc(N)nn2-c2cc(=O)n(CCN3CCNC3=O)cn2)cc1OC` [1-57, 6-(3-amino-5-(3,4-dimethoxybenzyl)-1H-1,2,4-triazol-1-yl)-3-(2-(2-oxoimidazolidin-1-yl)ethyl)pyrimidin-4(3H)-one]: 0.11 µM.
